Reference: ChEMBL document CHEMBL5576039, “Novel naphthoquinone-1H-1,2,3-triazole hybrids: Design, synthesis and evaluation as inductors of ROS-mediated apoptosis in the MCF-7 cells” (Bioorg Med Chem, 2024)
pIC50: −log10 of the molar value. Calls of active or inactive are those of the source. The calls are words filed in the database; no cut-off is given here.

Assays:
MCF7 [1] = test: Cytotoxicity against human MCF7 cells assessed as reduction in cell viability at 50 uM incubated for 24 hrs by MTT assay; type: functional, cell-based
MDA-MB-231 [2] = test: Induction of apoptotic cell death in human MDA-MB-231 cells assessed as increase in AnnexinV-positive cells at 1 uM incubated for 2 hrs by AnnexinV/7-AAD staining based flow cytometry; type: functional
MCF-10A [3] = test: Induction of apoptotic cell death in human MCF-10A cells assessed as increase in AnnexinV-positive cells at 1 uM incubated for 2 hrs by AnnexinV/7-AAD staining based flow cytometry; type: toxicity
MCF7 [4] = test: Induction of apoptotic cell death in human MCF7 cells assessed as increase in AnnexinV-positive cells at 1 uM incubated for 2 hrs by AnnexinV/7-AAD staining based flow cytometry; type: functional
MCF7 [5] = test: Cytotoxicity against human MCF7 cells assessed as reduction in cell viability at 12 uM incubated for 24 hrs by MTT assay; type: functional, cell-based
MCF7 [6] = test: Cytotoxicity against human MCF7 cells assessed as reduction in cell viability incubated for 24 hrs by MTT assay; type: functional, cell-based; conditions: MCF7, 24 h
MCF7 [7] = test: Activation of AMPK in human MCF7 cells assessed as increase in ACC phosphorylation at Ser79 residue at 12 uM incubated for 2 hrs by western blot analysis; type: cell-based; conditions: filed as activator
MDA-MB-231 [8] = test: Cytotoxicity against human MDA-MB-231 cells assessed as reduction in cell viability incubated for 24 hrs by MTT assay; type: functional, cell-based; conditions: MDA-MB-231, 24 h
MDA-MB-231 [9] = test: Activation of AMPK in human MDA-MB-231 cells assessed as reduction in S6 phosphorylation at Ser235/236 residue at 6 to 12 uM incubated for 2 hrs by western blot analysis; type: cell-based; conditions: filed as activator, dose 6-12 µM
MCF7 [10] = test: Induction of apoptotic cell death in human MCF7 cells at 6 to 12 uM by AnnexinV/7-AAD staining based flow cytometry; type: functional; conditions: dose 6-12 µM, time 12-24 hrs, TDE = time-dependent effect
MCF7 [11] = test: Activation of AMPK in human MCF7 cells assessed as reduction in S6 phosphorylation at Ser235/236 residue at 6 to 12 uM incubated for 2 hrs by western blot analysis; type: cell-based; conditions: filed as activator, dose 6-12 µM
MCF-10A [12] = test: Induction of apoptotic cell death in human MCF-10A cells assessed as increase in AnnexinV-positive cells at 12 uM incubated for 2 hrs by AnnexinV/7-AAD staining based flow cytometry; type: toxicity
MCF7 [13] = test: Induction of cell death in human MCF7 cells assessed as reduction in number of live cells at 12 uM incubated for 4 hrs by AnnexinV/7-AAD staining based flow cytometry; type: functional
MCF7 [14] = test: Cytotoxicity against human MCF7 cells assessed as reduction in cell viability at 6 to 12 uM by MTT assay; type: functional, cell-based; conditions: dose 6-12 µM, time 2-24 hrs, TDE = time-dependent effect
MDA-MB-231 [15] = test: Activation of AMPK in human MDA-MB-231 cells assessed as increase in AMPK phosphorylation at Thr172 residue at 12 uM incubated for 2 hrs by western blot analysis; type: cell-based; conditions: filed as activator
MDA-MB-231 [16] = test: Activation of AMPK in human MDA-MB-231 cells assessed as increase in ACC phosphorylation at Ser79 residue at 12 uM incubated for 2 hrs by western blot analysis; type: cell-based; conditions: filed as activator
MCF7 [17] = test: Induction of cell death in human MCF7 cells assessed as proportion of live cells at 6 uM incubated for 12 hrs by AnnexinV/7-AAD staining based flow cytometry; type: functional
MDA-MB-231 [18] = test: Induction of apoptotic cell death in human MDA-MB-231 cells assessed as increase in AnnexinV-positive cells at 3 to 12 uM incubated for 2 hrs by AnnexinV/7-AAD staining based flow cytometry; type: functional; conditions: dose 3-12 µM
MCF7 [19] = test: Activation of AMPK in human MCF7 cells assessed as reduction in mTOR phosphorylation at Ser2448 residue at 6 to 12 uM incubated for 2 hrs by western blot analysis; type: cell-based; conditions: filed as activator, dose 6-12 µM
MCF7 [20] = test: Induction of cell death in human MCF7 cells assessed as proportion of live cells at 12 uM incubated for 12 hrs by AnnexinV/7-AAD staining based flow cytometry; type: functional
MDA-MB-231 [21] = test: Activation of AMPK in human MDA-MB-231 cells assessed as reduction in p70S6K phosphorylation at Thr421/Ser424 residue at 6 to 12 uM incubated for 2 hrs by western blot analysis; type: cell-based; conditions: filed as activator, dose 6-12 µM
MDA-MB-231 [22] = test: Increase in ROS production in human MDA-MB-231 cells assessed as increase in ROS-positive cells at 6 to 12 uM incubated for 2 to 24 hrs by DCFDA/7-AAD staining based flow cytometry; type: functional, cell-based; conditions: dose 6-12 µM, time 2-24 hrs
MCF7 [23] = test: Cytotoxicity against human MCF7 cells assessed as reduction in cell viability at 6 uM incubated for 24 hrs by MTT assay; type: functional, cell-based
MCF-10A [24] = test: Cytotoxicity against human MCF-10A cells assessed as reduction in cell viability incubated for 24 hrs by MTT assay; type: toxicity, cell-based
MCF7 [25] = test: Induction of apoptotic cell death in human MCF7 cells incubated for 12 to 24 hrs by AnnexinV/7-AAD staining based flow cytometry; type: functional; conditions: dose 6-12 µM, time 12-24 hrs
MCF7 [26] = test: Cytotoxicity against human MCF7 cells assessed as reduction in cell viability incubated for 2 to 24 hrs by MTT assay; type: functional, cell-based; conditions: dose 6-12 µM, time 2-24 hrs
MCF7 [27] = test: Activation of AMPK in human MCF7 cells assessed as increase in AMPK phosphorylation at Thr172 residue at 12 uM incubated for 2 hrs by western blot analysis; type: cell-based; conditions: filed as activator
MCF7 [28] = test: Increase in ROS production in human MCF7 cells assessed as increase in ROS-positive cells at 6 to 12 uM incubated for 2 hrs by DCFDA/7-AAD staining based flow cytometry; type: functional, cell-based; conditions: dose 6-12 µM
MCF7 [29] = test: Induction of apoptotic cell death in human MCF7 cells assessed as increase in AnnexinV-positive cells at 3 uM incubated for 2 hrs by AnnexinV/7-AAD staining based flow cytometry; type: functional
MCF7 [30] = test: Increase in ROS production in human MCF7 cells assessed as increase in ROS-positive cells at 6 to 12 uM incubated for 4 hrs by DCFDA/7-AAD staining based flow cytometry; type: functional, cell-based; conditions: dose 6-12 µM

`CC1=C(C(C)n2cc(CNC3=CC(=O)c4ccccc4C3=O)nn2)C(=O)c2ccccc2C1=O` (stereo unspecified) was tested, and the Activity (MCF7 [1]) was “inactive”.
`CC1=C(C(c2ccc(Br)cc2)n2cc(CNC3=CC(=O)c4ccccc4C3=O)nn2)C(=O)c2ccccc2C1=O` (stereo unspecified) was tested, and the Activity (MCF7 [1]) was “inactive”.
In the case of `COc1cccc2c1C(=O)c1c(O)c3c(c(O)c1C2=O)C[C@@](O)(C(=O)CO)C[C@@H]3O[C@H]1C[C@H](N)[C@H](O)[C@H](C)O1` [DOXORUBICIN], the Activity (MDA-MB-231 [2]) was “Active”, the Activity (MCF-10A [3]) was “Toxic” and the Activity (MCF7 [4]) was “inactive”.
`CC1=C(C(c2ccc(F)cc2)n2cc(CNC3=CC(=O)c4ccccc4C3=O)nn2)C(=O)c2ccccc2C1=O` (stereo unspecified) was tested, and the Activity (MCF7 [1]) was “inactive”.
For `CC(C)=CC1=C(OCc2cn(C(C3=C(C)C(=O)c4ccccc4C3=O)c3ccc(Br)cc3)nn2)C(=O)c2ccccc2C1=O` (stereo unspecified), the Activity (MCF7 [1]) was “inactive”.
With `CC(C)=CC1=C(OCc2cn(C(C3=C(C)C(=O)c4ccccc4C3=O)c3ccccc3)nn2)C(=O)c2ccccc2C1=O` (stereo unspecified) the Activity (MCF7 [5]) was “Active”.
`CCc1ccc(-n2cc(CCNC3=C(C)C(=O)c4ccccc4C3=O)nn2)cc1` gave a pIC50 (MCF7 [6]) of 5.06.
`CC(C)(C)c1ccc(-n2cc(CNC3=CC(=O)c4ccccc4C3=O)nn2)cc1` showed a pIC50 (MCF7 [6]) of 4.67.
In the case of `CC(C)=CC1=C(OCc2cn(C(C)C3=C(C)C(=O)c4ccccc4C3=O)nn2)C(=O)c2ccccc2C1=O` (stereo unspecified), the Activity (MCF7 [7]) was “Active”, the pIC50 (MDA-MB-231 [8]) was 5.04 and the Activity (MDA-MB-231 [9]) was “Active”. The Activity (MCF7 [10]) was “Tde”, the Activity (MCF7 [11]) was “Active” and the pIC50 (MCF7 [6]) was 5.37. The Activity (MCF-10A [12]) was “Toxic”, the Activity (MCF7 [13]) was “Active” and the Activity (MCF7 [14]) was “Tde”. The Activity (MDA-MB-231 [15]) was “Active”, the Activity (MCF7 [5]) was “Active” and the Activity (MDA-MB-231 [16]) was “Active”. For the same molecule, the Activity (MCF7 [17]) was <75%, the Activity (MDA-MB-231 [18]) was “inactive” and the Activity (MCF7 [19]) was “Active”. The Activity (MCF7 [20]) was <95%, the Activity (MDA-MB-231 [21]) was “Active” and the Activity (MDA-MB-231 [22]) was “inactive”. For the same molecule, the Activity (MCF7 [23]) was “Active”, the Activity (MCF-10A [24]) was “Non-Toxic” and the Activity (MCF7 [25]) was “Dose-Dependent Effect”. For the same molecule, the Activity (MCF7 [26]) was “Dose-Dependent Effect”, the Activity (MCF7 [27]) was “Active” and the Activity (MCF7 [28]) was “Active”.
In the case of `CC(C)=CCC1=C(OCc2cn(C(C3=C(C)C(=O)c4ccccc4C3=O)c3ccccc3)nn2)C(=O)c2ccccc2C1=O` (stereo unspecified), the Activity (MCF7 [5]) was “Active”.
`CC(C)=CC1=C(OCc2cn(C(C3=C(C)C(=O)c4ccccc4C3=O)c3ccc(Cl)cc3)nn2)C(=O)c2ccccc2C1=O` (stereo unspecified) was tested, and the Activity (MCF7 [1]) was “inactive”.
With `CC1=C(C(c2ccccc2)n2cc(CNC3=CC(=O)c4ccccc4C3=O)nn2)C(=O)c2ccccc2C1=O` (stereo unspecified) the Activity (MCF7 [1]) was “inactive”.
With `CC(C)=CC1=C(OCc2cn(CC3=C(C)C(=O)c4ccccc4C3=O)nn2)C(=O)c2ccccc2C1=O` the Activity (MCF7 [7]) was “Active”, the pIC50 (MDA-MB-231 [8]) was 4.95 and the Activity (MDA-MB-231 [9]) was “Active”. The Activity (MCF7 [10]) was “Tde”, the Activity (MCF7 [11]) was “Active” and the pIC50 (MCF7 [6]) was 5.36. For the same molecule, the Activity (MCF-10A [12]) was “Non-Toxic”, the Activity (MCF7 [13]) was “Active” and the Activity (MCF7 [14]) was “Tde”. The Activity (MDA-MB-231 [15]) was “Active”, the Activity (MCF7 [5]) was “Active” and the Activity (MCF7 [29]) was “Active”. For the same molecule, the Activity (MDA-MB-231 [16]) was “Active”, the Activity (MCF7 [17]) was <70% and the Activity (MDA-MB-231 [18]) was “inactive”. For the same molecule, the Activity (MCF7 [19]) was “Active”, the Activity (MCF7 [20]) was <90% and the Activity (MDA-MB-231 [21]) was “Active”. For the same molecule, the Activity (MDA-MB-231 [22]) was “inactive”, the Activity (MCF7 [23]) was “Active” and the Activity (MCF7 [30]) was “inactive”. For the same molecule, the Activity (MCF-10A [24]) was “Non-Toxic”, the Activity (MCF7 [25]) was “Dose-Dependent Effect” and the Activity (MCF7 [26]) was “Dose-Dependent Effect”. For the same molecule, the Activity (MCF7 [27]) was “Active” and the Activity (MCF7 [28]) was “Active”.
With `CC(C)=CCC1=C(OCc2cn(C(C3=C(C)C(=O)c4ccccc4C3=O)c3ccc(Cl)cc3)nn2)C(=O)c2ccccc2C1=O` (stereo unspecified) the Activity (MCF7 [1]) was “inactive”.
With `CC(C)=CCC1=C(OCc2cn(C(C)C3=C(C)C(=O)c4ccccc4C3=O)nn2)C(=O)c2ccccc2C1=O` (stereo unspecified) the Activity (MCF7 [1]) was “inactive”.
`CC1=C(C(c2ccc(Cl)cc2)n2cc(CNC3=CC(=O)c4ccccc4C3=O)nn2)C(=O)c2ccccc2C1=O` (stereo unspecified) was tested, and the Activity (MCF7 [1]) was “inactive”.
For `CC1=C(Cn2cc(CNC3=CC(=O)c4ccccc4C3=O)nn2)C(=O)c2ccccc2C1=O`, the Activity (MCF7 [5]) was “Active”.
For `CC(C)=CCC1=C(OCc2cn(C(C3=C(C)C(=O)c4ccccc4C3=O)c3ccc(Br)cc3)nn2)C(=O)c2ccccc2C1=O` (stereo unspecified), the Activity (MCF7 [1]) was “inactive”.
For `CC(C)=CCC1=C(OCc2cn(C(C3=C(C)C(=O)c4ccccc4C3=O)c3ccc(F)cc3)nn2)C(=O)c2ccccc2C1=O` (stereo unspecified), the Activity (MCF7 [1]) was “inactive”.
`CC(C)=CCC1=C(OCc2cn(CC3=C(C)C(=O)c4ccccc4C3=O)nn2)C(=O)c2ccccc2C1=O` was tested, and the Activity (MCF7 [1]) was “inactive”.
`O=C1C=C(NCc2cn(-c3ccc(C(F)(F)F)cc3)nn2)C(=O)c2ccccc21` showed a pIC50 (MCF7 [6]) of 4.98.
